Data set [1] is described as follows: Microsomal stability assay, human. The class given is in vitro ADME. The note with it: metabolic stability, human liver microsomes 0.5 mg/mL, substrate 3 uM. How it is done:
(§1) The micorsomal stability assay is generally performed as follows. Format: 15 compounds (and 1 control verapamil) in 3 different species in duplicate sets Substrate: 3 uM Protein concentration: 0.5 mg/mL (for dog, rat, and human liver microsomes) Cofactor: 1×NADPH-Regenerating system Time-points: 2, 12, 25, 45, and 65 minutes [table] Sample preparation: 25 uL at each timepoint is added to plate with 225 uL quenching solution (50% MeOH, 25% ACN, 25% H2O, and 50 nM […]). After plates are vortexed, centrifuge for 30 minutes. Microsomal solutions: take 400 uL of 20 mg/mL microsomes and add to 13,680 uL 100 mM KPO4 buffer. Using an 8-channel, add 650 uL of this solution to the designated two columns on a short plate. The order should be dog microsomes in columns 1 and 2, rat microsomes in columns 3 and 4, and human microsomes in columns 5 and 6. Keep on ice before use. Place this plate in incubator 1 on the TECAN countertop.
A general note: Liver microsomes are vesicles of endoplasmic reticulum, rich in cytochrome P450 enzymes.

Data set [2] in a line: Microsomal stability assay, dog. It counts as in vitro ADME. The note with it: metabolic stability, dog liver microsomes 0.5 mg/mL, substrate 3 uM. How it is done:
as §1

The target in data set [3] is wild-type human cardiac sodium channel, hNav1.5 (late INa) (Homo sapiens, UniProt Q14524). Nature of the data set: Late INa screening assay (QPatch whole cell patch clamp). The class given is cell-based. A digest of the protocol:
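Compounds tested at 1 μM final in extracellular solution against tefluthrin (10 μM)-enhanced late current. Automated patch clamp (23-25° C) on HEK293 expressing alpha subunit alone: −120 mV holding, 250 ms depolarization to −20 mV every 10 s. Read-out is percent inhibition of mean current over 225–250 ms.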
For orientation: In patch-clamp work, channel activity is measured electrically.

A short description of data set [4]: Microsomal stability assay, rat. Particulars: metabolic stability, rat liver microsomes 0.5 mg/mL, substrate 3 uM. The class given is in vitro ADME. How it is done: as §1
The mark [5] stands for this setting: percent block of late INa, compound at 1 μM, 10 μM Tefluthrin, HEK293 hNav1.5, read-out: Late INa 1 μM.

The structures appear in SMILES notation. Where two headings read alike, the source gives them in different places.

Chain of wild-type human cardiac sodium channel, hNav1.5 (late INa) (Q14524 whole entry): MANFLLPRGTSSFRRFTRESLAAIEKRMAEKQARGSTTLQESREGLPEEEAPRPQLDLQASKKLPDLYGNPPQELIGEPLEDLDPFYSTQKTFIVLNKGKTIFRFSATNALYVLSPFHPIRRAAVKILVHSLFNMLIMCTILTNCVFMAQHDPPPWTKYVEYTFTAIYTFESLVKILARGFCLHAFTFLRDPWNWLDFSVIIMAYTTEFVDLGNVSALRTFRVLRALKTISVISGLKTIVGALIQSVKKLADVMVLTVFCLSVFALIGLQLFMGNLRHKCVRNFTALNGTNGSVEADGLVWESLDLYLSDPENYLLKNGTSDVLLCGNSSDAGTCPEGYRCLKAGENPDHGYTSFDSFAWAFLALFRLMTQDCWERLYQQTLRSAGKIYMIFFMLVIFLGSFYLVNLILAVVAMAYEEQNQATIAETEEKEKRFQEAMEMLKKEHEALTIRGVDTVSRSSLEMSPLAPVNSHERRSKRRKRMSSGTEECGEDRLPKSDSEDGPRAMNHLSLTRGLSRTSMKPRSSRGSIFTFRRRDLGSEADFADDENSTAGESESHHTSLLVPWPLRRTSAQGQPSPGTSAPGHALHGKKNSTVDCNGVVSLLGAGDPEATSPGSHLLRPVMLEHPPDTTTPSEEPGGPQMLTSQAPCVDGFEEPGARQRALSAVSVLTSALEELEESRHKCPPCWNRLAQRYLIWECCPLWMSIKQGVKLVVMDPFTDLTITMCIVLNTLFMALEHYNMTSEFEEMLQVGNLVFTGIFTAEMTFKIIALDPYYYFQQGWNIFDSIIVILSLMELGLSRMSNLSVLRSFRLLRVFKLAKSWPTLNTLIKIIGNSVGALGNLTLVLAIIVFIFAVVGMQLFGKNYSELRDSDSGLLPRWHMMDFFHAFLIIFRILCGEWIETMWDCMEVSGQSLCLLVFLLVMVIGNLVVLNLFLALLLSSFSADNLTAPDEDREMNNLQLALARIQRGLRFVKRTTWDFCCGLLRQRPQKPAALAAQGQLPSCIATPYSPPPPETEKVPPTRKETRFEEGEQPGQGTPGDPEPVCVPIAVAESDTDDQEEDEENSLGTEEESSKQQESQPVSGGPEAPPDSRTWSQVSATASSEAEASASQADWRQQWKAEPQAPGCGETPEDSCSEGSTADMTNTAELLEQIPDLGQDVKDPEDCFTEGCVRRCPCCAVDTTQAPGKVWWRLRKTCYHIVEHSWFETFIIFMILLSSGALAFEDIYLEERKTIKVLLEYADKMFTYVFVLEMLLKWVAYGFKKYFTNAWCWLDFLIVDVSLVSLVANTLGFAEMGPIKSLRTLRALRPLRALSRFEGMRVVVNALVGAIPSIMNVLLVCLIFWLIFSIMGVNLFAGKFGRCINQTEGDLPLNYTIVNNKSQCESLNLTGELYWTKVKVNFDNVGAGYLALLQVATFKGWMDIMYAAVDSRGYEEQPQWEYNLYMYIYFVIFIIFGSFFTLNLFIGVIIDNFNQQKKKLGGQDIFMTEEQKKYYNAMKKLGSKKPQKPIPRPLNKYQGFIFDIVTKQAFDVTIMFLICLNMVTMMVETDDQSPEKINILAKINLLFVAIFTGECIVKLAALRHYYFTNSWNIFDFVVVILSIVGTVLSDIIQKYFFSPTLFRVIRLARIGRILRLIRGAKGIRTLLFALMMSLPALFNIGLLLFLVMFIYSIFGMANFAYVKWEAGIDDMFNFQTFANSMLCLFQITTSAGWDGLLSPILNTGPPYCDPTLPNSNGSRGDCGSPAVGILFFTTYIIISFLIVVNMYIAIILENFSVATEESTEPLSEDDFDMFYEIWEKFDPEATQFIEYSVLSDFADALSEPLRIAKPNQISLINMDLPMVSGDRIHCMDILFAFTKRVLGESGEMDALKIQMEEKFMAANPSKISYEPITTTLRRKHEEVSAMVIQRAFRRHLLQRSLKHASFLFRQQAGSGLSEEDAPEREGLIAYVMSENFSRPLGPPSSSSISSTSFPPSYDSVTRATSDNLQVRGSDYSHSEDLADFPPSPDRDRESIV

On to `CN(C(=O)N1CCc2ccc(-c3ccc(C(F)(F)F)cc3)cc2C1)c1ccccc1` [IX-50, N-methyl-N-phenyl-7-(4-(trifluoromethyl)phenyl)-3,4-dihydroisoquinoline-2(1H)-carboxamide], for which the MS Human THalf in data set [1] was 61 min. Besides, the MS Dog THalf in data set [2] was 96 min. In addition, the inhibition at 1 µM in data set [3] (setting [5]) was 29%. Further, the MS Rat THalf in data set [4] was determined as 9 min.
Regarding `O=C(N1CCCC1)N1CCc2ccc(-c3ccc(C(F)(F)F)cc3)cc2C1` [IX-53, pyrrolidin-1-yl(7-(4-(trifluoromethyl)phenyl)-3,4-dihydroisoquinolin-2(1H)-yl)methanone], the MS Human THalf in data set [1] stood at 198 min. Also, the MS Dog THalf in data set [2] was 93 min. In addition, the inhibition at 1 µM in data set [3] (setting [5]) is 33%. In data set [4], this compound returned an MS Rat THalf of 28 min.
On to `Cn1ccnc1C(=O)N1CCc2ccc(-c3ccc(C(F)(F)F)cc3)cc2C1` [IX-80, (1-methyl-1H-imidazol-2-yl)(7-(4-(trifluoromethyl)phenyl)-3,4-dihydroisoquinolin-2(1H)-yl)methanone], for which, in data set [1], the MS Human THalf came to 170 min. In addition, the MS Dog THalf in data set [2] came to 197 min. The inhibition at 1 µM in data set [3] (setting [5]) is 40%. The same compound displayed an MS Rat THalf in data set [4] of 7 min.
With `O=C(NCc1ncccn1)N1CCc2ccc(-c3ccc(C(F)(F)F)cc3)cc2C1` [IX-89, N-(pyrimidin-2-ylmethyl)-7-(4-(trifluoromethyl)phenyl)-3,4-dihydroisoquinoline-2(1H)-carboxamide], the MS Human THalf in data set [1] amounted to 125 min. In data set [2], the MS Dog THalf came out at 177 min. Besides, the inhibition at 1 µM in data set [3] (setting [5]) was 33%. Moreover, the MS Rat THalf in data set [4] was 192 min.
Consider `O=C(N1CCc2ccc(-c3ccc(C(F)(F)F)cc3)cc2C1)N1CC(O)C1` [IX-108, (3-hydroxyazetidin-1-yl)(7-(4-(trifluoromethyl)phenyl)-3,4-dihydroisoquinolin-2(1H)-yl)methanone], for which, in data set [1], the MS Human THalf worked out at 245 min. In data set [2], this compound yielded an MS Dog THalf of 370 min. In addition, the inhibition at 1 µM came to 30% in data set [3] (% inhibition at 1 μM, read-out: NAv1.5*-LATE-) and 30% in data set [3] (setting [5]). For the same compound, in data set [4], the MS Rat THalf stood at 302 min.

The values above are taken from patent US20150329558A1, “FUSED HETEROCYCLIC COMPOUNDS AS ION CHANNEL MODULATORS” (Gilead Sciences, Inc., priority 2011, published 2015).
